Reference: patent US8404708B2, “Dual NK1/NK3 receptor antagonists” (Hoffmann-La Roche Inc., priority 2004, dated 2013)
pKi: −log10 of the molar value.

Legend:
human NK1 receptor = human NK1 receptor (Homo sapiens, UniProt P25103); experiment: NK1 receptor binding, [3H]substance P displacement, CHO cell membranes; details: first value of the cell pKi NK1/NK3; human NK1 receptor, [3H]substance P
[1] = molecular target: T1, Recombinant human NK3 (hNK3) receptor (Homo sapiens, UniProt P29371); experiment: NK3 receptor binding, [3H]SR142801 displacement, membrane preparations; details: second value of the cell pKi NK1/NK3; hNK3 receptor, [3H]SR142801
T1 construct: expressed in transfected cells
T1 sequence (P29371 1-465): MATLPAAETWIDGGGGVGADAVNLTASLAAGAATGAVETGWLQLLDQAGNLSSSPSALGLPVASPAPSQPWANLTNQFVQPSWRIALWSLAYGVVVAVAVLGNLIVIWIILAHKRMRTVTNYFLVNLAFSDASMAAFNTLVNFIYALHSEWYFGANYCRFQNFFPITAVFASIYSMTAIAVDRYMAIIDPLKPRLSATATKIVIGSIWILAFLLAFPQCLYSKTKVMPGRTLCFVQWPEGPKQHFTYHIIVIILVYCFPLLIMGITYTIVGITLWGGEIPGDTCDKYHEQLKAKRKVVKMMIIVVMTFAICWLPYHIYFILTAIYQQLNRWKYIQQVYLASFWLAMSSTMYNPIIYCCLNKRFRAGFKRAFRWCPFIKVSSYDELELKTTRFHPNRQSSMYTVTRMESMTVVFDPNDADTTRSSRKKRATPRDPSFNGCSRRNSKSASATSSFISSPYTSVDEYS
In short: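 hNK3 membranes (~2.5 μg/well) incubated 90 min at room temperature in 50 mM Tris-HCl pH 7.4 with 0.1% BSA, 4 mM MnCl2, 1 μM phosphoramidon. Nonspecific binding defined with 10 μM SB222200; bound [3H]SR142801 separated by filtration on PEI-soaked GF/C filters and counted by scintillation.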

human NK1 receptor, sequence (P25103 whole entry): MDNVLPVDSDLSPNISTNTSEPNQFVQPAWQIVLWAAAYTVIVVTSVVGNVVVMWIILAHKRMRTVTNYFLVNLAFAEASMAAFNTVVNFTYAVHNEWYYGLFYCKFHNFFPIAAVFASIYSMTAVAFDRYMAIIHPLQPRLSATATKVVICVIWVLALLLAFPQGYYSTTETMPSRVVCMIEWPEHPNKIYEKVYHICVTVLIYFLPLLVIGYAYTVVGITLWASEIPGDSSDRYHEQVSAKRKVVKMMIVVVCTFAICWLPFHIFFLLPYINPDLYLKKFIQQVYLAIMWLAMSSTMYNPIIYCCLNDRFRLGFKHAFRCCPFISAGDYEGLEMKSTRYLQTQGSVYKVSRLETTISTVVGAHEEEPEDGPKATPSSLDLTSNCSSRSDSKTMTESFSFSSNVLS

Row | pKi (human NK1 receptor) | pKi [1] | Compound
1 | 8.95 | 7.84 | CN(C(=O)C(C)(C)c1cc(C(F)(F)F)cc(C(F)(F)F)c1)c1cnc(NCCO)cc1-c1ccc(F)cc1Cl [Example 69, 2-(3,5-Bis-trifluoromethyl-phenyl)-N-[4-(2-chloro-4-fluoro-phenyl)-6-(2-hydroxy-ethylamino)-pyridin-3-yl]-N-methyl-isobutyramide]
2 | 8.70 | 8.39 | CN(C(=O)C(C)(C)c1cc(C(F)(F)F)cc(C(F)(F)F)c1)c1cnc(NCCO)cc1-c1ccc(Cl)cc1Cl [Example 70, 2-(3,5-Bis-trifluoromethyl-phenyl)-N-[4-(2,4-dichloro-phenyl)-6-(2-hydroxy-ethylamino)-pyridin-3-yl]-N-methyl-isobutyramide]
3 | 8.69 | 8.04 | C[C@H](O)CNc1cc(-c2ccc(Cl)cc2Cl)c(N(C)C(=O)C(C)(C)c2cc(C(F)(F)F)cc(C(F)(F)F)c2)cn1 [Example 71, (S)-2-(3,5-Bis-trifluoromethyl-phenyl)-N-[4-(2,4-dichloro-phenyl)-6-(2-hydroxy-propylamino)-pyridin-3-yl]-N-methyl-isobutyramide]
4 | 9.19 | 8.32 | Cc1cc(F)ccc1-c1cc(NC[C@H](C)O)ncc1N(C)C(=O)C(C)(C)c1cc(C(F)(F)F)cc(C(F)(F)F)c1 [Example 77, (S)-2-(3,5-Bis-trifluoromethyl-phenyl)-N-[4-(4-fluoro-2-methyl-phenyl)-6-(2-hydroxy-propylamino)-pyridin-3-yl]-N-methyl-isobutyramide]
5 | 8.93 | 8.96 | Cc1ccccc1-c1cc(N(CCO)CCO)ncc1N(C)C(=O)C(C)(C)c1cc(C(F)(F)F)cc(C(F)(F)F)c1 [Example 83, N-{6-[Bis-(2-hydroxy-ethyl)-amino]-4-o-tolyl-pyridin-3-yl}-2-(3,5-bis-trifluoromethyl-phenyl)-N-methyl-isobutyramide]
6 | 8.47 | 8.76 | Cc1cc(F)ccc1-c1cc(N(CCO)CCO)ncc1N(C)C(=O)C(C)(C)c1cc(C(F)(F)F)cc(C(F)(F)F)c1 [Example 84, N-[6-[Bis-(2-hydroxy-ethyl)-amino]-4-(4-fluoro-2-methyl-phenyl)-pyridin-3-yl]-2-(3,5-bis-trifluoromethyl-phenyl)-N-methyl-isobutyramide]
7 | 8.63 | 8.64 | Cc1cc(F)ccc1-c1cc(N(CCO)CCCO)ncc1N(C)C(=O)C(C)(C)c1cc(C(F)(F)F)cc(C(F)(F)F)c1 [Example 85, 2-(3,5-Bis-trifluoromethyl-phenyl)-N-{4-(4-fluoro-2-methyl-phenyl)-6-[(2-hydroxy-ethyl)-(3-hydroxy-propyl)-amino]-pyridin-3-yl}-N-methyl-isobutyramide]
8 | 8.99 | 7.67 | Cc1cc(F)ccc1-c1cc(N[C@H]2CC[C@H](O)CC2)ncc1N(C)C(=O)C(C)(C)c1cc(C(F)(F)F)cc(C(F)(F)F)c1 [Example 92, trans-2-(3,5-Bis-trifluoromethyl-phenyl)-N-[4-(4-fluoro-2-methyl-phenyl)-6-(4-hydroxy-cyclohexylamino)-pyridin-3-yl]-N-methyl-isobutyramide]
9 | 8.95 | 8.13 | Cc1cc(F)ccc1-c1cc(N2CCC[C@@H]2CO)ncc1N(C)C(=O)C(C)(C)c1cc(C(F)(F)F)cc(C(F)(F)F)c1 [Example 93, (R)-2-(3,5-Bis-trifluoromethyl-phenyl)-N-[4-(4-fluoro-2-methyl-phenyl)-6-(2-hydroxymethyl-pyrrolidin-1-yl)-pyridin-3-yl]-N-methyl-isobutyramide]

Continued, compound first:

Row | Compound | pKi (human NK1 receptor) | pKi [1]
10 | C[C@H](O)CNc1cc(-c2ccccc2Cl)c(N(C)C(=O)C(C)(C)c2cc(C(F)(F)F)cc(C(F)(F)F)c2)cn1 [Example 72, (S)-2-(3,5-Bis-trifluoromethyl-phenyl)-N-[4-(2-chloro-phenyl)-6-(2-hydroxy-propylamino)-pyridin-3-yl]-N-methyl-isobutyramide] | 9.14 | 7.58
11 | C[C@@H](O)CNc1cc(-c2ccccc2Cl)c(N(C)C(=O)C(C)(C)c2cc(C(F)(F)F)cc(C(F)(F)F)c2)cn1 [Example 73, (R)-2-(3,5-Bis-trifluoromethyl-phenyl)-N-[4-(2-chloro-phenyl)-6-(2-hydroxy-propylamino)-pyridin-3-yl]-N-methyl-isobutyramide] | 9.06 | 8.13
12 | CN(C(=O)C(C)(C)c1cc(C(F)(F)F)cc(C(F)(F)F)c1)c1cnc(NCC(C)(C)O)cc1-c1ccccc1Cl [Example 75, 2-(3,5-Bis-trifluoromethyl-phenyl)-N-[4-(2-chloro-phenyl)-6-(2-hydroxy-2-methyl-propylamino)-pyridin-3-yl]-N-methyl-isobutyramide] | 8.77 | 7.91
13 | CCC(O)CNc1cc(-c2ccccc2Cl)c(N(C)C(=O)C(C)(C)c2cc(C(F)(F)F)cc(C(F)(F)F)c2)cn1 (stereo not shown) [Example 76, 2-(3,5-Bis-trifluoromethyl-phenyl)-N-[4-(2-chloro-phenyl)-6-(2-hydroxy-butylamino)-pyridin-3-yl]-N-methyl-isobutyramide] | 8.80 | 7.97
14 | C[C@@H](CO)Nc1cc(-c2ccccc2Cl)c(N(C)C(=O)C(C)(C)c2cc(C(F)(F)F)cc(C(F)(F)F)c2)cn1 [Example 79, (S)-2-(3,5-Bis-trifluoromethyl-phenyl)-N-[4-(2-chloro-phenyl)-6-(2-hydroxy-1-methyl-ethylamino)-pyridin-3-yl]-N-methyl-isobutyramide] | 8.87 | 7.98
15 | C[C@H](CO)Nc1cc(-c2ccccc2Cl)c(N(C)C(=O)C(C)(C)c2cc(C(F)(F)F)cc(C(F)(F)F)c2)cn1 [Example 80, (R)-2-(3,5-Bis-trifluoromethyl-phenyl)-N-[4-(2-chloro-phenyl)-6-(2-hydroxy-1-methyl-ethylamino)-pyridin-3-yl]-N-methyl-isobutyramide] | 8.90 | 8.05
16 | CN(C(=O)C(C)(C)c1cc(C(F)(F)F)cc(C(F)(F)F)c1)c1cnc(NC(CO)CO)cc1-c1ccccc1Cl [Example 81, 2-(3,5-Bis-trifluoromethyl-phenyl)-N-[4-(2-chloro-phenyl)-6-(2-hydroxy-1-hydroxymethyl-ethylamino)-pyridin-3-yl]-N-methyl-isobutyramide] | 8.68 | 8.25
17 | CN(C(=O)C(C)(C)c1cc(C(F)(F)F)cc(C(F)(F)F)c1)c1cnc(N(CCO)CCO)cc1-c1ccccc1Cl [Example 82, N-[6-[Bis-(2-hydroxy-ethyl)-amino]-4-(2-chloro-phenyl)-pyridin-3-yl]-2-(3,5-bis-trifluoromethyl-phenyl)-N-methyl-isobutyramide] | 9.03 | 9.09
18 | CN(C(=O)C(C)(C)c1cc(C(F)(F)F)cc(C(F)(F)F)c1)c1cnc(N(CCO)CCO)cc1-c1ccc(Cl)cc1Cl [Example 86, N-[6-[Bis-(2-hydroxy-ethyl)-amino]-4-(2,4-dichloro-phenyl)-pyridin-3-yl]-2-(3,5-bis-trifluoromethyl-phenyl)-N-methyl-isobutyramide] | 8.78 | 8.45
19 | CN(C(=O)C(C)(C)c1cc(C(F)(F)F)cc(C(F)(F)F)c1)c1cnc(N(CCO)CCO)cc1-c1ccc(Cl)c(Cl)c1 [Example 87, N-[6-[Bis-(2-hydroxy-ethyl)-amino]-4-(3,4-dichloro-phenyl)-pyridin-3-yl]-2-(3,5-bis-trifluoromethyl-phenyl)-N-methyl-isobutyramide] | 8.80 | 8.02
20 | CN(C(=O)C(C)(C)c1cc(C(F)(F)F)cc(C(F)(F)F)c1)c1cnc(N(CCO)CCO)cc1-c1ccc(F)cc1 [Example 88, N-[6-[Bis-(2-hydroxy-ethyl)-amino]-4-(4-fluoro-phenyl)-pyridin-3-yl]-2-(3,5-bis-trifluoromethyl-phenyl)-N-methyl-isobutyramide] | 8.87 | 8.03
21 | CN(C(=O)C(C)(C)c1cc(C(F)(F)F)cc(C(F)(F)F)c1)c1cnc(NCCS(C)(=O)=O)cc1-c1ccccc1Cl [Example 89, 2-(3,5-Bis-trifluoromethyl-phenyl)-N-[4-(2-chloro-phenyl)-6-(2-methanesulfonyl-ethylamino)-pyridin-3-yl]-N-methyl-isobutyramide] | 9.31 | 8.49
22 | CC(=O)NCCNc1cc(-c2ccccc2Cl)c(N(C)C(=O)C(C)(C)c2cc(C(F)(F)F)cc(C(F)(F)F)c2)cn1 [Example 90, N-[6-(2-Acetylamino-ethylamino)-4-(2-chloro-phenyl)-pyridin-3-yl]-2-(3,5-bis-trifluoromethyl-phenyl)-N-methyl-isobutyramide] | 8.75 | 8.22
23 | CN(C(=O)C(C)(C)c1cc(C(F)(F)F)cc(C(F)(F)F)c1)c1cnc(N[C@H]2CC[C@H](O)CC2)cc1-c1ccc(Cl)cc1Cl [Example 91, trans-2-(3,5-Bis-trifluoromethyl-phenyl)-N-[4-(2,4-dichloro-phenyl)-6-(4-hydroxy-cyclohexylamino)-pyridin-3-yl]-N-methyl-isobutyramide] | 8.61 | 8.25
